In US20110166121A1 (LG LIFE SCIENCES LTD., priority 2008, published 2011):
Structures can show the parent of a compound that is named as a salt.

Tested on: Human platelet aggregation caused by ADP
Experiment: Inhibition of ADP-induced platelet aggregation (Mimic-human PRP)
Assay type: cell-based
Details: 20 μM ADP, human platelet concentrate diluted with PPP, absorption at 595 nm
Method: Platelet Preparation for Aggregation Studies
Human platelet aggregation reaction test is a functional experiment method to verify whether a test compound is an agonist or an antagonist to ADP receptor. […] The platelet product isolated from whole blood was purchased from Chung-Nam blood center (Dae-joen, South Korea). The platelet was isolated from 400 mL of whole blood containing 56 mL of CPDA-1 anticoagulant. To isolate the platelet product, 400 mL of whole blood was centrifuged at 260×g for 5 minutes, and then obtained PRP (platelet rich plasma) was secondary centrifuged at 370×g for 6 minutes. Platelet pellet (10^9/mL) was suspended with 45 mL of plasma and then agitated over 1 hour at 22° C. blood reservoir to stabilize it. The stabilized platelet product was used in the experiment within 24 hours. PCs (Platelet Concentrates) were gently transferred to a new 50 ml-falcon tube. The number of platelet was counted by using animal blood counter (ABC Vet, ABX diagnostics, France). The volume of 30 mL of PCs collected from same donor was centrifuged at 1500 g for 10 min at room temperature to prepare platelet-poor plasma (PPP). The platelet count was adjusted to platelet number of 3˜4×10^8/mL by diluting with PPP.
Evaluation on Inhibitory Effect of ADP-Induced Aggregation
Inhibition of ADP-induced aggregation was determined in 96-well flat-bottom plates (Costar, USA) at room temperature. The diluted platelet was aliquoted into each well of 96 well plate in the volume of 188 μl. […] The platelet including test compounds was immediately mixed on a shaker at 1050 rpm for 1 min and incubated at room temperature for 20 min. Then, 10 μL volume of 400 μM ADP was added: the final concentration of 20 μM ADP in the total reaction volume of 0.2 mL/well. After shaking of the plate at room temperature for 3 min, the absorption of the samples was determined at 595 nm using a microtiter plate reader (Softmax, Molecular Devices).
A dose-dependent curve on serial dilutions of ADP was accomplished by adding vehicle (DMSO) instead of antagonists in order to calculate EC50 of ADP. Inhibition of aggregation was calculated from the increase of absorption at 595 nm at 3 min of the reaction incubation, compared to results of absorption between the 0 and 20 μM ADP control without antagonists. Sigmoidal dose-response curves and Ki were derived by non-linear regression analysis using the Prism software (GraphPad, San Diego Calif.).

Row | SMILES | Ki
1 | CCCC(=O)N[C@@H]1CCCN(c2nc(N3CCn4c(nnc4C(F)(F)F)C3)c3cc(CCC)sc3n2)C1 [Example 7-7, Hydrochloric acid salt of N-{(R)-1-[6-Propyl-4-(3-trifluoromethyl-5,6-dihydro-8H-[1,2,4]triazolo[4,3-a]pyrazin-7-yl)-thieno[2,3-d]pyrimidin-2-yl]-piperidin-3-yl}-butyramide] | 0.063 µM
2 | CCCc1cc2c(N3CCn4c(nnc4C(F)(F)F)C3)nc(N3CCC[C@@H](NC(=O)C(C)C)C3)nc2s1 [Example 7-8, Hydrochloric acid salt of N-{(R)-1-[6-Propyl-4-(3-trifluoromethyl-5,6-dihydro-8H-[1,2,4]triazolo[4,3-a]pyrazin-7-yl)-thieno[2,3-d]pyrimidin-2-yl]-piperidin-3-yl}-isobutyramide] | 0.15 µM
3 | CCCc1cc2c(N3CCn4c(nnc4C(F)(F)F)C3)nc(N3CCC[C@H](NC(C)=O)C3)nc2s1 [Example 7-9, Hydrochloric acid salt of N-{(S)-1-[6-Propyl-4-(3-trifluoromethyl-5,6-dihydro-8H-[1,2,4]triazolo[4,3-a]pyrazin-7-yl)-thieno[2,3-d]pyrimidin-2-yl]-piperidin-3-yl}-acetamide] | 0.59 µM
4 | CCCC(=O)N[C@H]1CCCN(c2nc(N3CCn4c(nnc4C(F)(F)F)C3)c3cc(CCC)sc3n2)C1 [Example 7-10, Hydrochloric acid salt of N-{(S)-1-[6-Propyl-4-(3-trifluoromethyl-5,6-dihydro-8H-[1,2,4]triazolo[4,3-a]pyrazin-7-yl)-thieno[2,3-d]pyrimidin-2-yl]-piperidin-3-yl}-butyramide] | 0.98 µM
5 | CCCc1cc2c(N3CCn4c(nnc4C(F)(F)F)C3)nc(N3CCC[C@H](NC(=O)C(C)C)C3)nc2s1 [Example 7-11, Hydrochloric acid salt of N-{(S)-1-[6-Propyl-4-(3-trifluoromethyl-5,6-dihydro-8H-[1,2,4]triazolo[4,3-a]pyrazin-7-yl)-thieno[2,3-d]pyrimidin-2-yl]-piperidin-3-yl}-isobutyramide] | 0.28 µM
6 | CCCc1cc2c(N3CCn4c(nnc4C(F)(F)F)C3)nc(N3CCC(NC(C)=O)CC3)nc2s1 [Example 7-12, Hydrochloric acid salt of N-{1-[6-Propyl-4-(3-trifluoromethyl-5,6-dihydro-8H-[1,2,4]triazolo[4,3-a]pyrazin-7-yl)-thieno[2,3-d]pyrimidin-2-yl]-piperidin-4-yl}-acetamide] | 0.035 µM
7 | CCCC(=O)NC1CCN(c2nc(N3CCn4c(nnc4C(F)(F)F)C3)c3cc(CCC)sc3n2)CC1 [Example 7-13, Hydrochloric acid salt of N-{1-[6-Propyl-4-(3-trifluoromethyl-5,6-dihydro-8H-[1,2,4]triazolo[4,3-a]pyrazin-7-yl)-thieno[2,3-d]pyrimidin-2-yl]-piperidin-4-yl}-butyramide] | 0.076 µM
8 | CCCc1cc2c(N3CCn4c(nnc4C(F)(F)F)C3)nc(N3CCC(NC(=O)C(C)C)CC3)nc2s1 [Example 7-14, Hydrochloric acid salt of N-{1-[6-Propyl-4-(3-trifluoromethyl-5,6-dihydro-8H-[1,2,4]triazolo[4,3-a]pyrazin-7-yl)-thieno[2,3-d]pyrimidin-2-yl]-piperidin-4-yl}-isobutyramide] | 0.12 µM
9 | CCCC(=O)N1CCN(c2nc(N3CCn4c(nnc4C(F)(F)F)C3)c3cc(CCC)sc3n2)CC1 [Example 7-15, Hydrochloric acid salt of 1-{4-[6-Propyl-4-(3-trifluoromethyl-5,6-dihydro-8H-[1,2,4]triazolo[4,3-a]pyrazin-7-yl)-thieno[2,3-d]pyrimidin-2-yl]-piperazin-1-yl}-butan-1-one] | 0.6 µM
10 | CCCc1cc2c(N3CCn4c(nnc4C(F)(F)F)C3)nc(N3CCN(C(=O)C(C)C)CC3)nc2s1 [Example 7-16, Hydrochloric acid salt of 2-Methyl-1-{4-[6-propyl-4-(3-trifluoromethyl-5,6-dihydro-8H-[1,2,4]triazolo[4,3-a]pyrazin-7-yl)-thieno[2,3-d]pyrimidin-2-yl]-piperazin-1-yl}-propan-1-one] | 0.59 µM
11 | CCCc1cc2c(N3CCn4c(nnc4C(F)(F)F)C3)nc(N3CC(O)C(NC(C)=O)C3)nc2s1 (stereo not drawn) [Example 7-17, N-{4-Hydroxy-1-[6-propyl-4-(3-trifluoromethyl-5,6-dihydro-8H-[1,2,4]triazolo[4,3-a]pyrazin-7-yl)-thieno[2,3-d]pyrimidin-2-yl]-pyrrolidin-3-yl}-acetamide] | 0.0028 µM
12 | CCCc1cc2c(N3CCn4c(nnc4C(F)(F)F)C3)nc(N3CC(NC(C)=O)C(OC(C)=O)C3)nc2s1 (stereo not drawn) [Example 7-18, Acetic acid 4-acetylamino-1-[6-propyl-4-(3-trifluoromethyl-5,6-dihydro-8H-[1,2,4]triazolo[4,3-a]pyrazin-7-yl)-thieno[2,3-d]pyrimidin-2-yl]-pyrrolidin-3-yl ester] | 0.0065 µM
13 | CCCC(=O)NC1CN(c2nc(N3CCn4c(nnc4C(F)(F)F)C3)c3cc(CCC)sc3n2)CC1O (stereo not drawn) [Example 7-19, N-{4-Hydroxy-1-[6-propyl-4-(3-trifluoromethyl-5,6-dihydro-8H-[1,2,4]triazolo[4,3-a]pyrazin-7-yl)-thieno[2,3-d]pyrimidin-2-yl]-pyrrolidin-3-yl}-butyramide] | 0.005 µM
14 | CCCc1cc2c(N3CCn4c(nnc4C(F)(F)F)C3)nc(N3CC(O)C(NC(=O)C(C)C)C3)nc2s1 (stereo not drawn) [Example 7-20, N-{4-Hydroxy-1-[6-propyl-4-(3-trifluoromethyl-5,6-dihydro-8H-[1,2,4]triazolo[4,3-a]pyrazin-7-yl)-thieno[2,3-d]pyrimidin-2-yl]-pyrrolidin-3-yl}-isobutyramide] | 0.0048 µM
15 | CCCc1cc2c(N3CCn4c(nnc4C(F)(F)F)C3)nc(N3CC(O)C(NC(=O)C(C)(C)C)C3)nc2s1 (stereo not drawn) [Example 7-21, N-{4-Hydroxy-1-[6-propyl-4-(3-trifluoromethyl-5,6-dihydro-8H-[1,2,4]triazolo[4,3-a]pyrazin-7-yl)-thieno[2,3-d]pyrimidin-2-yl]-pyrrolidin-3-yl}-2,2-dimethyl-propionamide] | 0.021 µM
16 | CCCc1cc2c(N3CCn4c(nnc4C(F)(F)F)C3)nc(N3CC(O)C(NC(=O)CO)C3)nc2s1 (stereo not drawn) [Example 7-22, 2-Hydroxy-N-{4-hydroxy-1-[6-propyl-4-(3-trifluoromethyl-5,6-dihydro-8H-[1,2,4]triazolo[4,3-a]pyrazin-7-yl)-thieno[2,3-d]pyrimidin-2-yl]-pyrrolidin-3-yl}-acetamide] | 0.004 µM
17 | CCCc1cc2c(N3CCn4c(nnc4C(F)(F)F)C3)nc(N3CC(O)C(NC(=O)C(C)(C)O)C3)nc2s1 (stereo not drawn) [Example 7-23, 2-Hydroxy-N-{4-hydroxy-1-[6-propyl-4-(3-trifluoromethyl-5,6-dihydro-8H-[1,2,4]triazolo[4,3-a]pyrazin-7-yl)-thieno[2,3-d]pyrimidin-2-yl]-pyrrolidin-3-yl}-2-methyl-propionamide] | 0.012 µM
18 | CCCc1cc2c(N3CCn4c(nnc4C(F)(F)F)C3)nc(N3CC(O)C(NC(=O)C(C)(CO)CO)C3)nc2s1 (stereo not drawn) [Example 7-24, 3-Hydroxy-2-hydroxymethyl-N-{4-hydroxy-1-[6-propyl-4-(3-trifluoromethyl-5,6-dihydro-8H-[1,2,4]triazolo[4,3-a]pyrazin-7-yl)-thieno[2,3-d]pyrimidin-2-yl]-pyrrolidin-3-yl}-2-methyl-propionamide] | 0.015 µM
19 | CCCc1cc2c(N3CCn4c(nnc4C(F)(F)F)C3)nc(N3CC(O)C(NC(=O)C(C)(C)CO)C3)nc2s1 (stereo not drawn) [Example 7-25, 3-Hydroxy-N-{4-hydroxy-1-[6-propyl-4-(3-trifluoromethyl-5,6-dihydro-8H-[1,2,4]triazolo[4,3-a]pyrazin-7-yl)-thieno[2,3-d]pyrimidin-2-yl]-pyrrolidin-3-yl}-2,2-dimethyl-propionamide] | 0.018 µM
20 | CCCc1cc2c(N3CCn4c(nnc4C(F)(F)F)C3)nc(N3CC4OC(=O)N[C@H]4C3)nc2s1 (stereo partly drawn) [Example 7-26, (S)-5-[6-Propyl-4-(3-trifluoromethyl-5,6-dihydro-8H-[1,2,4]triazolo[4,3-a]pyrazin-7-yl)-thieno[2,3-d]pyrimidin-2-yl]-hexahydro-pyrrolo[3,4-d]oxazol-2-one] | 0.0021 µM
21 | CCCc1cc2c(N3CCn4c(nnc4C(F)(F)F)C3)nc(N3CC(N)C(N)C3)nc2s1 (stereo not drawn) [Example 7-27, Di-hydrochloric acid salt of 1-[6-Propyl-4-(3-trifluoromethyl-5,6-dihydro-8H-[1,2,4]triazolo[4,3-a]pyrazin-7-yl)-thieno[2,3-d]pyrimidin-2-yl]-pyrrolidine-3,4-diamine] | 0.017 µM
